ChEMBL document CHEMBL1129318, “Structure-activity relationships of boronic acid inhibitors of dipeptidyl peptidase IV. 1. Variation of the P2 position of Xaa-boroPro dipeptides” (J Med Chem, 1996)

Tests used:
[1] = target: Dipeptidyl peptidase 4 (Homo sapiens, UniProt P27487); experiment: In vitro for inhibition of Dipeptidylpeptidase IV.
[2] = target: T1, Prolyl endopeptidase (Homo sapiens, UniProt P48147); experiment: (§1) Compound was tested in vitro for inhibition of Prolyl endopeptidase
T1 sequence (P48147 whole entry): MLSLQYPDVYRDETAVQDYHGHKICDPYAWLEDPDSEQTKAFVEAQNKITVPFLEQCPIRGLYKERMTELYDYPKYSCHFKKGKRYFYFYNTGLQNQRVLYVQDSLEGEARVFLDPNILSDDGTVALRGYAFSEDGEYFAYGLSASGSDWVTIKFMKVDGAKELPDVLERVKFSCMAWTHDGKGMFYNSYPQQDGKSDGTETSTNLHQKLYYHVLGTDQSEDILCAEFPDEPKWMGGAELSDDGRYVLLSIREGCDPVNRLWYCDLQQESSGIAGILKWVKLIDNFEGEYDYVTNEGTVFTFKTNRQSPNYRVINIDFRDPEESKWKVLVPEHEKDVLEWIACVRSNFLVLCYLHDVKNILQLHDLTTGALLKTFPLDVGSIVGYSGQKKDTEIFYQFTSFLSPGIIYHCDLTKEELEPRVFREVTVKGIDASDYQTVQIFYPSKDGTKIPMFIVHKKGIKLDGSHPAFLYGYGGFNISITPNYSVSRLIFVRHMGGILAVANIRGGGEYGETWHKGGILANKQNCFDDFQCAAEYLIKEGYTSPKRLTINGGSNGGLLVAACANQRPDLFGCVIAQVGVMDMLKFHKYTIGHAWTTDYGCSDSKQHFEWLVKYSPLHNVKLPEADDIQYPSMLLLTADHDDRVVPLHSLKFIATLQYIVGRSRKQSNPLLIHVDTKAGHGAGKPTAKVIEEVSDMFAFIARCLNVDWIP

[3] = target: Dipeptidyl peptidase 2 (Homo sapiens, UniProt Q9UHL4); experiment: Compound was tested in vitro for inhibition of Dipeptidylpeptidase II
[4] = target: T2, Prolyl endopeptidase (Homo sapiens) (UniProt P48147); experiment: as §1; conditions: concentration not given here
T2 sequence (whole entry): T1 sequence (P48147 whole entry)

Dipeptidyl peptidase 4, sequence (P27487 whole entry): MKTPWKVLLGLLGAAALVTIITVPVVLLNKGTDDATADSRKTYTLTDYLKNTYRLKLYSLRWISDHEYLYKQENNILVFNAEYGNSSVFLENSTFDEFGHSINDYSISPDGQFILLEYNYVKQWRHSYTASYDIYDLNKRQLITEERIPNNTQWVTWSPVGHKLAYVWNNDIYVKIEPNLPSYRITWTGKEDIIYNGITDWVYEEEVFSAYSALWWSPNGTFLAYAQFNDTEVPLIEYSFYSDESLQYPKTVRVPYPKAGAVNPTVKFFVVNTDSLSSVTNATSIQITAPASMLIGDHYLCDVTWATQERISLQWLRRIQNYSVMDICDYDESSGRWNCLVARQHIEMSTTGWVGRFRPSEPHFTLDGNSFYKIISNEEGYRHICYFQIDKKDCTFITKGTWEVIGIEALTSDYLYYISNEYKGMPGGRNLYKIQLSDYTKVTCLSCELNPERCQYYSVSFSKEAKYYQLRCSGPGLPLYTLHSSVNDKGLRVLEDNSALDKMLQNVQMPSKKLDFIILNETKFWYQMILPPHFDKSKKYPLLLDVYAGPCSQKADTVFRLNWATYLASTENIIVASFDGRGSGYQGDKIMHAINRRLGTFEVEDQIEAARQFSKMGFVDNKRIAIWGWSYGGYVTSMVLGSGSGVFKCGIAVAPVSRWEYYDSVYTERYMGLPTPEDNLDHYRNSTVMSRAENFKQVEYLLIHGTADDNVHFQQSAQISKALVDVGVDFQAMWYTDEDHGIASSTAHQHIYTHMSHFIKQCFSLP

SMILES	IC50 [1] [nM]	also measured
NCCCC[C@H](N)C(=O)N1CCC[C@H]1B(O)O	95	–
N[C@@H](Cc1ccccc1)C(=O)N1CCC[C@H]1B(O)O	70	–
N[C@H](C(=O)N1CCC[C@H]1B(O)O)c1ccccc1	63	–
N[C@@H](Cc1c[nH]cn1)C(=O)N1CCC[C@H]1B(O)O	17000	–
O=C([C@@H]1CCCN1)N1CCC[C@H]1B(O)O	20	IC50 [3]: 770 nM; inhibition [4]: 63%
N[C@@H](Cc1ccc(O)cc1)C(=O)N1CCC[C@H]1B(O)O	32	–
C[C@H](N)C(=O)N1CCC[C@H]1B(O)O	–	IC50 [3]: 60 nM

The next lines start with results.

IC50 [1] [nM]	SMILES	also measured
16000	NCC(=O)N1CCC[C@H]1B(O)O	–
30000	CC(C)(N)C(=O)N1CCC[C@H]1B(O)O	–
190	C[C@@H](O)[C@H](N)C(=O)N1CCC[C@H]1B(O)O	IC50 [2]: 6000 nM; IC50 [3]: 730 nM
44	CC(C)C[C@H](N)C(=O)N1CCC[C@H]1B(O)O	–
250	O=C([C@@H]1CCN1)N1CCC[C@H]1B(O)O	–
25	CC[C@H](C)[C@H](N)C(=O)N1CCC[C@H]1B(O)O	–
